Measurements as given in patent publication US10538521B2, “Pyrimidine derivative having antimalarial activity” (CARNA BIOSCIENCES, INC., priority 2016, dated 2020).
Structures can show the parent of a compound that is named as a salt. Where two headings read alike, the source gives them in different places.

Assays:
[1] = tested on: FCR3 strain, a drug sensitive strain of Plasmodium falciparum; experiment: In vitro antimalarial assay (p-LDH, Malstat), FCR3 strain; format: cell-based; details: read-out: Antimalarial activity (IC50 value), Strain FCR3
Procedure, shortened: (§1)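 P. falciparum FCR3 and K1 cultured in human erythrocytes (RPMI 1640, 10% human plasma; 2% hematocrit, 0.5 or 1% parasitaemia) with compound at 12.5 to 0.0001 μM final for 72 h at 37° C (3% O2-4% CO2-93% N2). Growth read as p-LDH activity (Malstat/NBT-PES, A655 nm) after freeze-thaw; IC50 from concentration-response curve.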

[2] = tested on: K1 strain, a drug resistant strain of Plasmodium falciparum; experiment: In vitro antimalarial assay (p-LDH, Malstat), K1 strain; format: cell-based; details: read-out: Antimalarial activity (IC50 value), Strain K1
Procedure, shortened: as §1

[3] = P. falciparum FCR3 (drug sensitive), 72 h culture, p-LDH readout
[4] = P. falciparum K1 (drug resistant), 72 h culture, p-LDH readout

SMILES	IC50 [1, 3] [nM]	IC50 [2, 4] [nM]	IC50 ([1]; FCR3, 72 h) [nM]	IC50 ([2]; K1, 72 h) [nM]
CCc1ccnc(Nc2nc(Nc3ccn4ccnc4c3)cc(N3CCC3)n2)c1 [Example 118, 6-(azetidin-1-yl)-N2-(4-ethylpyridin-2-yl)-N4-(imidazo[1,2-a]pyridin-7-yl)pyrimidine-2,4-diamine]	< 100	< 100		
CCc1ccnc(Nc2nc(Nc3ccn4ccnc4c3)cc(N3CCC(CO)CC3)n2)c1 [Example 119, (1-(2-((4-ethylpyridin-2-yl)amino)-6-(imidazo[1,2-a]pyridin-7-ylamino)pyrimidin-4-yl)piperidin-4-yl)methanol]	< 100	< 100		
CCc1ccnc(Nc2nc(Nc3ccn4ccnc4c3)cc(N3CCOCCOCCOCC3)n2)c1 [Example 120, N2-(4-ethylpyridin-2-yl)-N4-(imidazo[1,2-a]pyridin-7-yl)-6-(1,4,7-trioxa-10-azacyclododecan-10-yl)pyrimidine-2,4-diamine]	1000 to 10000	1000 to 10000		
CC(C)c1cccc(Nc2nc(Nc3ccn4ccnc4c3)cc(N3CCCCC3)n2)n1 [Example 121, N4-(imidazo[1,2-a]pyridin-7-yl)-N2-(6-isopropylpyridin-2-yl)-6-(piperidin-1-yl)pyrimidine-2,4-diamine]	< 100	100 to 1000		
CC(C)(C)c1cccc(Nc2nc(Nc3ccn4ccnc4c3)cc(N3CCCCC3)n2)n1 [Example 122, N2-(6-(tert-butyl)pyridin-2-yl)-N4-(imidazo[1,2-a]pyridin-7-yl)-6-(piperidin-1-yl)pyrimidine-2,4-diamine]	100 to 1000	100 to 1000		
CC(C)c1cccc(Nc2nc(Nc3ccn4ccnc4c3)cc(N3CCOCC3)n2)n1 [Example 123, N4-(imidazo[1,2-a]pyridin-7-yl)-N2-(6-isopropylpyridin-2-yl)-6-morpholinopyrimidine-2,4-diamine formate]			< 100	100 to 1000
CC(C)(C)c1cccc(Nc2nc(Nc3ccn4ccnc4c3)cc(N3CCOCC3)n2)n1 [Example 124, N2-(6-(tert-butyl)pyridin-2-yl)-N4-(imidazo[1,2-a]pyridin-7-yl)-6-morpholinopyrimidine-2,4-diamine]	100 to 1000	100 to 1000		
CCc1ccnc(Nc2nc(Nc3ccn4ccnc4c3)cc(N3CC[C@@H](N(C)C)C3)n2)c1 [Example 125, (R)-6-(3-(dimethylamino)pyrrolidin-1-yl)-N2-(4-ethylpyridin-2-yl)-N4-(imidazo[1,2-a]pyridin-7-yl)pyrimidine-2,4-diamine]	< 100	< 100		
CCc1ccnc(Nc2nc(Nc3ccn4ccnc4c3)cc(N3CC[C@H](N(C)C)C3)n2)c1 [Example 126, (S)-6-(3-(dimethylamino)pyrrolidin-1-yl)-N2-(4-ethylpyridin-2-yl)-N4-(imidazo[1,2-a]pyridin-7-yl)pyrimidine-2,4-diamine]	< 100	< 100		
CCc1ccnc(Nc2nc(Nc3ccn4ccnc4c3)cc(N3CCC(N4CCCC4)CC3)n2)c1 [Example 127, N2-(4-ethylpyridin-2-yl)-N4-(imidazo[1,2-a]pyridin-7-yl)-6-(4-(pyrrolidin-1-yl)piperidin-1-yl)pyrimidine-2,4-diamine]	< 100	< 100		
COc1ccnc(Nc2nc(Nc3ccn4ccnc4c3)cc(N3CCCC3)n2)c1 [Example 128, N4-(imidazo[1,2-a]pyridin-7-yl)-N2-(4-methoxypyridin-2-yl)-6-(pyrrolidin-1-yl)pyrimidine-2,4-diamine]	< 100	< 100		
CCc1ccnc(Nc2nc(Nc3ccn4ccnc4c3)cc(N3CCC(N(C)C)CC3)n2)c1 [Example 129, 6-(4-(dimethylamino)piperidin-1-yl)-N2-(4-ethylpyridin-2-yl)-N4-(imidazo[1,2-a]pyridin-7-yl)pyrimidine-2,4-diamine]	< 100	< 100		
Cc1cc(C)nc(Nc2nc(Nc3ccn4ccnc4c3)cc(N3CCC(O)CC3)n2)c1 [Example 130, 1-(2-((4,6-dimethylpyridin-2-yl)amino)-6-(imidazo[1,2-a]pyridin-7-ylamino)pyrimidin-4-yl)piperidin-4-ol]	< 100	< 100		
